Assay results published in ChEMBL document CHEMBL1127118 (Bioorg Med Chem Lett, 1993).
Several values for one entry are separate records, joined by “and”; a condition that tells them apart may be missing. Equal entries are not always repeated.

Key:
[1] = target: 5-hydroxytryptamine receptor 1B (Rattus norvegicus, UniProt P28564); test: Binding affinity against 5-hydroxytryptamine 1B receptor in rat striatal membranes using [3H]5-HT as radioligand; type: cell membranes, Striatum, Membrane
[2] = target: T1, 5-hydroxytryptamine receptor 1A (Rattus norvegicus, UniProt P19327); test: Displacement of [3H]8-OH-DPAT from rat hippocampal 5-hydroxytryptamine 1A receptor; type: tissue-based, Hippocampus
T1 sequence (P19327 whole entry): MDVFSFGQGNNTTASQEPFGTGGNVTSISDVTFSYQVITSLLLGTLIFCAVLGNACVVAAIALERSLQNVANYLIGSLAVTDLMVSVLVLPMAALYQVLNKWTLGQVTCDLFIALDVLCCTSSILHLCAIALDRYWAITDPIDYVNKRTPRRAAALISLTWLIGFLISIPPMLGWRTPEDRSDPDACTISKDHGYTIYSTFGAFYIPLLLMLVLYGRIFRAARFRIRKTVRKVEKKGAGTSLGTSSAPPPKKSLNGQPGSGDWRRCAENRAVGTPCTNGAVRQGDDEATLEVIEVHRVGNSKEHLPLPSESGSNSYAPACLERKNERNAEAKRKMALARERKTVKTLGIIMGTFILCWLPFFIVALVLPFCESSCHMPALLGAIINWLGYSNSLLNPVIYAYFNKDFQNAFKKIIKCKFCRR

[3] = target: T1, 5-hydroxytryptamine receptor 1A; test: The compound was evaluated for binding affinity against 5-hydroxytryptamine 1A receptor in rat hippocampal membranes using [3H]8-OH-DPAT as radioligand in the presence of 1 mM of MnCl2; type: cell membranes, Hippocampus
[4] = target: T1, 5-hydroxytryptamine receptor 1A; test: The compound was evaluated for binding affinity against 5-hydroxytryptamine 1A receptor in rat hippocampal membranes using [3H]8-OH-DPAT as radioligand in the presence of 3*10e-5 M GTP gamma S; type: cell membranes, Hippocampus

Sequence of 5-hydroxytryptamine receptor 1B (P28564 whole entry): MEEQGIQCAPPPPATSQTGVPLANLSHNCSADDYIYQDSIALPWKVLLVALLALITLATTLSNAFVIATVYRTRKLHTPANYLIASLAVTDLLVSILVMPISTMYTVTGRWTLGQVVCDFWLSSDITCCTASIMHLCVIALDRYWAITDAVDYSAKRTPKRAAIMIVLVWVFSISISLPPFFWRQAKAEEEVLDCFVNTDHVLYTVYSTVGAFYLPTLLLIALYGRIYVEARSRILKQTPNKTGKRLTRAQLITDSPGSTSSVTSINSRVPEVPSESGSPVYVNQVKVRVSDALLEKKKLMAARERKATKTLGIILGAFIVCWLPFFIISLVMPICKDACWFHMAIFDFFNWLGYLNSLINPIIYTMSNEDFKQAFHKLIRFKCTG

COc1cc2ccccc2c2c1CC(N)CC2 (stereo not drawn)
Ki [1]: 76.3 nM
Ki [2]: 1060 nM

COc1cccc2c1CC(N)CC2 (stereo not drawn)
Ki [1]: 902 nM
Ki [2]: 158 nM

CCCN(CCC)C1CCc2c(C)ccc(O)c2C1 (stereo not drawn)
Ki [1]: > 10000 nM
Ki [3]: 46.6 nM
Ki [4]: 81.1 nM
Ki [2]: 18.4 nM and 30.8 nM

CCCN(CCC)C1CCc2cccc(OC)c2C1 (stereo not drawn)
Ki [1]: 3970 nM
Ki [2]: 3.05 nM

CCCN(CCC)C1CCc2c(c(OC)cc3ccccc23)C1 (stereo not drawn)
Ki [1]: 6340 nM
Ki [2]: 1300 nM

COc1c2c(cc3ccccc13)CCC(N)C2 (stereo not drawn)
Ki [1]: 23 nM
Ki [2]: 2520 nM

CCCN(CCC)C1CCc2cc3ccccc3c(O)c2C1 (stereo not drawn)
Ki [1]: > 1000 nM
Ki [2]: 2520 nM

CC(C)(C)NCC(O)COc1cccc2c1SCCC2 (stereo not drawn) [TERTATOLOL]
Ki [3]: 7.71 nM
Ki [4]: 37.6 nM
Ki [2]: 18.2 nM

COc1ccc(C)c2c1CC(N)CC2 (stereo not drawn)
Ki [1]: > 10000 nM
Ki [2]: 436 nM

CCCN(CCC)C1CCc2c(C)ccc(OC)c2C1 (stereo not drawn)
Ki [1]: 575 nM
Ki [2]: 115 nM
